# Experimental data as given in ChEMBL document CHEMBL3867466, “Synthesis and biological evaluation of novel 2,4,5-triarylimidazole-1,2,3-triazole derivatives via click chemistry as α-glucosidase inhibitors” (Bioorg Med Chem Lett, 2016).
# Molecular target: Alpha-glucosidase MAL12 (Saccharomyces cerevisiae) (UniProt P53341)
# Experiment: Potency index, ratio of acarbose IC50 to compound IC50 for bakers yeast alpha-glucosidase
# Alpha-glucosidase MAL12 (Saccharomyces cerevisiae), sequence (P53341 whole entry, looked up): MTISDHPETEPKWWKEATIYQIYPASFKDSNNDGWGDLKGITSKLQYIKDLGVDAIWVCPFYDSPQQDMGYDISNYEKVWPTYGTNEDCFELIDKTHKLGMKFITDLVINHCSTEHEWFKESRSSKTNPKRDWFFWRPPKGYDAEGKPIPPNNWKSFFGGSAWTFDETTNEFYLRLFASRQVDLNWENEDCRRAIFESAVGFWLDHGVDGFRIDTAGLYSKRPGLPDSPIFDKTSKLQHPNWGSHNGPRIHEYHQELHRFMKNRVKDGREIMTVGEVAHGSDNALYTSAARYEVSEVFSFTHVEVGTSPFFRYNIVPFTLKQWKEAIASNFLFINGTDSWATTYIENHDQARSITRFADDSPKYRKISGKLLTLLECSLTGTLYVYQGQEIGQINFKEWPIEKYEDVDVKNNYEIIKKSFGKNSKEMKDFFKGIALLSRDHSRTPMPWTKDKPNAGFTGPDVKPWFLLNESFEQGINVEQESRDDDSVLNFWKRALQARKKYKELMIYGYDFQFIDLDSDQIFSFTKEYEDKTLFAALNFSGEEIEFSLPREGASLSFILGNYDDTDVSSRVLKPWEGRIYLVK
smiles,measurement,value
CCOc1ccccc1NC(=O)Cn1cc(Cn2c(-c3cccc(Br)c3)nc(-c3ccccc3)c2-c2ccccc2)nn1,Ratio IC50,52
